Patent publication US20210038607A1, “OXADIAZOLYLTHIOPHENE DERIVATIVES USEFUL AS HISTONE DEACETYLASE INHIBITORS” (Karus Therapeutics Limited, priority 2018, published 2021)

Legend:
[1] = biological target: T1, Human HDAC1 (Homo sapiens, UniProt Q13547); assay: HDAC1 biochemical assay, AMC-labeled peptide substrate; settings: read-out: HDAC Isoform IC50 (nM) 1
T1 construct: full length with C-terminal His-tag and C-terminal FLAG-tag; His (C); FLAG (C); host or cells: baculovirus expression system
T1 sequence (Q13547 whole entry, canonical isoform): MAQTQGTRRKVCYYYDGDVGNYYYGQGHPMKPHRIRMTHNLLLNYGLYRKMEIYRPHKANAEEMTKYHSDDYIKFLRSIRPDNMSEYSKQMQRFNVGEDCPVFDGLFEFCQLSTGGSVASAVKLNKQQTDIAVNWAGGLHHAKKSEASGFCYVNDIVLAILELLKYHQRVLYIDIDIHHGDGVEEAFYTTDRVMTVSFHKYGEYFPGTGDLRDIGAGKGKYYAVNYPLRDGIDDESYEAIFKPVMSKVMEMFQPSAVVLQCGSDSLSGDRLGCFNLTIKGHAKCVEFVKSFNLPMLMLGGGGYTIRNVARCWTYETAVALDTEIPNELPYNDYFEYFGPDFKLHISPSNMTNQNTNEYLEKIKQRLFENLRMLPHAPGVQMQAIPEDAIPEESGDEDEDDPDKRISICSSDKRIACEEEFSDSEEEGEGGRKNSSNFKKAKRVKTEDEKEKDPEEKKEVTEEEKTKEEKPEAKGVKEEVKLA
How it was run: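 Two-step fluorogenic read: HDAC1 deacetylates 50 μM acetyl-lysine AMC peptide RHKK(Ac)AMC for 1 h at 30° C (pH 8.0, 1% DMSO, with compound), then developer digests the product for fluorescence at Ex/Em 360/460. Enzyme is full-length human, His/FLAG-tagged, insect-cell expressed, at 0.3 ng/ul.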

[2] = biological target: T2, Human HDAC4 (Homo sapiens, UniProt P56524); assay: HDAC4 biochemical assay, class IIa-specific substrate; settings: read-out: HDAC Isoform IC50 (nM) 4
T2 construct: amino acids 627-1085 with N-terminal GST tag; GST (N); host or cells: baculovirus expression system
T2 sequence (P56524 627-1084 limits assumed): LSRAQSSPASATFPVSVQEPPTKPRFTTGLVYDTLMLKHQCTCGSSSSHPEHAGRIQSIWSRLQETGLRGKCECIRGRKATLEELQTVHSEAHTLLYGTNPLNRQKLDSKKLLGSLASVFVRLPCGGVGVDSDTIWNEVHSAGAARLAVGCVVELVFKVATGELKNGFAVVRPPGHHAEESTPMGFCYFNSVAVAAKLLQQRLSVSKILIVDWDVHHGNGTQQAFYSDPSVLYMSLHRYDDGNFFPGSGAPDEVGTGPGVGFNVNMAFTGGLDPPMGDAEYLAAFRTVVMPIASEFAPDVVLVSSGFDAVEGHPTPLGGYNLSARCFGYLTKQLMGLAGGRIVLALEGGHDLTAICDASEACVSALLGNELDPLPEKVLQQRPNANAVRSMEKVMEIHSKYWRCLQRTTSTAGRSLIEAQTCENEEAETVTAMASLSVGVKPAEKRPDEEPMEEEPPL
How it was run: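 Two-step fluorogenic read-out: deacetylated BOC-Lys(trifluoroacetyl)-AMC (50 μM) was digested by developer and measured at Ex/Em 360/460. Deacetylation by 0.004 ng/ul HDAC4 (aa 627-1085, N-terminal GST) ran 30 min at room temperature, pH 8.0 Tris buffer, 1 mg/mL BSA, 1% DMSO.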

[3] = biological target: T3, Human HDAC5 (Homo sapiens, UniProt Q9UQL6); assay: HDAC5 biochemical assay, class IIa-specific substrate; settings: read-out: HDAC Isoform IC50 (nM) 5
T3 construct: full length with C-terminal His tag, MW=51.1 kDa; His (C); host or cells: baculovirus expression system
T3 sequence (Q9UQL6 656-1122 limits assumed): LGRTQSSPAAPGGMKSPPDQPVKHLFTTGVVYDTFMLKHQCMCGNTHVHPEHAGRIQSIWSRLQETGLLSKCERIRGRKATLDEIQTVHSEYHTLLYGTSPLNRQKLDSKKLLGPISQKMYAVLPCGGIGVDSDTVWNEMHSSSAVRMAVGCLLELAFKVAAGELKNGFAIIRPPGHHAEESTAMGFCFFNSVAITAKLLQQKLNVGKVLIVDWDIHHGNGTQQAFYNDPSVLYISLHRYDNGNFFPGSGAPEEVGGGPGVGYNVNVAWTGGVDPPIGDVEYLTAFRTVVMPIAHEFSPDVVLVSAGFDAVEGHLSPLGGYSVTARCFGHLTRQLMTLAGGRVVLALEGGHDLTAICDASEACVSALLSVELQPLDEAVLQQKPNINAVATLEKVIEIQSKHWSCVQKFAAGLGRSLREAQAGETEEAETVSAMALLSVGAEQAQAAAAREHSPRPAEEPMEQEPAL
How it was run: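 Two-step fluorogenic read-out: deacetylated trifluoroacetyl-lysine AMC substrate (50 μM) digested by developer, measured at Ex/Em 360/460. Deacetylation step: 0.05 ng/ul His-tagged full-length baculoviral enzyme with compound, 30 min, room temperature, pH 8.0 Tris with 1 mg/mL BSA and 1% DMSO.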

[4] = biological target: T4, Recombinant human HDAC6 (Homo sapiens, UniProt Q9UBN7); assay: HDAC6 biochemical assay, AMC-labeled peptide substrate; settings: HDAC6; read-out: HDAC Isoform IC50 (nM) 6
T4 construct: full length, MW=159 kDa; GST (N); host or cells: Sf9 insect cells (baculovirus)
T4 sequence (Q9UBN7 1-1215): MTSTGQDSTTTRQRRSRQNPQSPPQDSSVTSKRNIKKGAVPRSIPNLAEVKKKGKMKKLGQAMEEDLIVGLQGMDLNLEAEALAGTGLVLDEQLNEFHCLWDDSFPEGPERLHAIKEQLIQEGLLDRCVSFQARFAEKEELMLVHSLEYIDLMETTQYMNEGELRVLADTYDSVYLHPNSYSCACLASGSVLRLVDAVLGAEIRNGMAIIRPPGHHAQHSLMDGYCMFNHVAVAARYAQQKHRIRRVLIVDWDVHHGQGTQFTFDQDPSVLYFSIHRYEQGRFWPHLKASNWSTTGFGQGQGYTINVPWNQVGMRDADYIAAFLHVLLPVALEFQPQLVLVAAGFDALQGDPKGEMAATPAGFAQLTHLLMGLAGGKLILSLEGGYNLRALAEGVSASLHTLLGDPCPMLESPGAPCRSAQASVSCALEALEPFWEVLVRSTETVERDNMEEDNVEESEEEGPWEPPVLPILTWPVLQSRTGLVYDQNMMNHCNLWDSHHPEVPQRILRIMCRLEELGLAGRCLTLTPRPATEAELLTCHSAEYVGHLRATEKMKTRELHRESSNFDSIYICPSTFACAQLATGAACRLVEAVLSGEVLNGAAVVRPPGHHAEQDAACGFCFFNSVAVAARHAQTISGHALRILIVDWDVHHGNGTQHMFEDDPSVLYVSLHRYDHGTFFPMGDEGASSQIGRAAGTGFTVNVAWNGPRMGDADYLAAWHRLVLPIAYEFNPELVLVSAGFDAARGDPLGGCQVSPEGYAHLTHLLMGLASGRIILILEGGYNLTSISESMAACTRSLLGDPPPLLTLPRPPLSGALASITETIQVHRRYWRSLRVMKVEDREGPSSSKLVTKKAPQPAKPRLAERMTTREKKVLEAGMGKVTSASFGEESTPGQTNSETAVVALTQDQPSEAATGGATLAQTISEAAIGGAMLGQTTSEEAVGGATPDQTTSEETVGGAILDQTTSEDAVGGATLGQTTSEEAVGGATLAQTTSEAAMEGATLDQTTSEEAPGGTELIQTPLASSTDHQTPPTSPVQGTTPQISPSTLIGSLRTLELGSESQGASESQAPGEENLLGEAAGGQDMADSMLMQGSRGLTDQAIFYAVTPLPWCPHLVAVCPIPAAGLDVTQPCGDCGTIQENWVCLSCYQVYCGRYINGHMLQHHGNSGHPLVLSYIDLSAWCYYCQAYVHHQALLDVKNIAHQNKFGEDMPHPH
How it was run: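 Two-step fluorogenic read-out: enzyme deacetylates 50 μM RHKK(Ac)AMC for 1 h at 30° C in pH 8.0 Tris buffer with BSA and 1% DMSO, then developer cleavage gives signal at Ex 360/Em 460. Enzyme: 0.3 ng/ul recombinant full-length human HDAC6, GST-tagged, Sf9-expressed.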

[5] = biological target: T5, Human HDAC7 (Homo sapiens, UniProt Q8WUI4); assay: HDAC7 biochemical assay, class IIa-specific substrate; settings: read-out: HDAC Isoform IC50 (nM) 7
T5 construct: (a.a. 518-end) with N-terminal GST tag; GST (N); host or cells: baculovirus expression system
T5 sequence (Q8WUI4 518-952 limits assumed): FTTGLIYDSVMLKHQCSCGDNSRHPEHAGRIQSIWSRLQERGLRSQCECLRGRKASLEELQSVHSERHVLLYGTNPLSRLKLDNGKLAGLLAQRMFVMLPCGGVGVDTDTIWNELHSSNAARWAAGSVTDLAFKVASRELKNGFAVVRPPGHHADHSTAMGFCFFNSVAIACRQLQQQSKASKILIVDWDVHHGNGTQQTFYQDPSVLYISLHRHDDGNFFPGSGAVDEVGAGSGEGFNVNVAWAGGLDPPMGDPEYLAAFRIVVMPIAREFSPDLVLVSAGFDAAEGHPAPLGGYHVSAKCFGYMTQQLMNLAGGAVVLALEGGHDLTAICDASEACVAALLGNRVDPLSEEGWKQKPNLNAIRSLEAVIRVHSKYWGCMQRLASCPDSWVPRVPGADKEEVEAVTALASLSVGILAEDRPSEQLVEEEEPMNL
How it was run: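 Two-step fluorogenic readout: class IIa-selective trifluoroacetyl-lysine AMC substrate (50 μM) deacetylated by N-terminal GST-HDAC7 fragment (0.001 ng/ul), then digested by developer, Ex/Em 360/460. Reaction: 30 min, room temperature, Tris-HCl pH 8.0, NaCl/KCl/MgCl2, 1 mg/mL BSA, 1% DMSO.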

[6] = biological target: T6, Human HDAC9 (Homo sapiens, UniProt Q9UKV0); assay: HDAC9 biochemical assay, class IIa-specific substrate; settings: read-out: HDAC Isoform IC50 (nM) 9
T6 construct: amino acids 604-1066 with C-terminal His tag; His (C); host or cells: baculovirus expression system
T6 sequence (Q9UKV0 604-1066 isoform Q9UKV0-5): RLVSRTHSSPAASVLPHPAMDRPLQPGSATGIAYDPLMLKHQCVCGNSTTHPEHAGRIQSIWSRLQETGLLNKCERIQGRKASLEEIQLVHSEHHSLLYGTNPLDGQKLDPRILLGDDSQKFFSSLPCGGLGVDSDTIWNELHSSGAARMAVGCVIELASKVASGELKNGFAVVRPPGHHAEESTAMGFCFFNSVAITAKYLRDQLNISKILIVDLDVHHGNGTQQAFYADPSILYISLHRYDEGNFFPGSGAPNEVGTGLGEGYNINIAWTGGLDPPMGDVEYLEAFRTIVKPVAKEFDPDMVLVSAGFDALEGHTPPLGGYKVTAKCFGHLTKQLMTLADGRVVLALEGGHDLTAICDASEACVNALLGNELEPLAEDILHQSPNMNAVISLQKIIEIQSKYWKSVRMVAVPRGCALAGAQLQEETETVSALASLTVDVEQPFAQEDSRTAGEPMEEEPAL
How it was run: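 HDAC9 residues 604-1066 (C-terminal His tag, baculovirus-expressed) at 0.06 ng/ul with 50 μM class IIa substrate Boc-Lys(trifluoroacetyl)-AMC in Tris-HCl pH 8.0 buffer with BSA and 1% DMSO. 30 min at room temperature, then developer added; fluorescence read at 360/460 nm Ex/Em.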

Row | Structure (SMILES) | IC50 [1] | IC50 [2] | IC50 [3] | IC50 [4] | IC50 [5] | IC50 [6]
1 | FC(F)(F)c1nc(-c2ccc(CN(c3cnccn3)c3ccc4nccnc4n3)s2)no1 [Example Z, N-{Pyrido[2,3-b]pyrazin-6-yl}-N-({5-[5-(trifluoromethyl)-1,2,4-oxadiazol-3-yl]thiophen-2-yl}methyl)pyrazin-2-amine] | > 10000 nM | ≤ 1000 nM | ≤ 1000 nM | ≤ 1000 nM | ≤ 1000 nM | ≤ 10000 nM
2 | Cc1ncc(N(Cc2ccc(-c3noc(C(F)(F)F)n3)s2)c2cnccn2)nc1C [Example BT, 5,6-Dimethyl-N-(pyrazin-2-yl)-N-({5-[5-(trifluoromethyl)-1,2,4-oxadiazol-3-yl]thiophen-2-yl}methyl)pyrazin-2-amine] | > 10000 nM | ≤ 10000 nM | ≤ 10000 nM | ≤ 10000 nM | ≤ 10000 nM | ≤ 10000 nM
3 | CN(C)c1nccc(N(Cc2ccc(-c3noc(C(F)(F)F)n3)s2)c2cnccn2)n1 [Example CC, N2,N2-Dimethyl-N4-(pyrazin-2-yl)-N4-({5-[5-(trifluoromethyl)-1,2,4-oxadiazol-3-yl]thiophen-2-yl}methyl)pyrimidine-2,4-diamine] | > 10000 nM | ≤ 10000 nM | ≤ 10000 nM | ≤ 10000 nM | ≤ 10000 nM | ≤ 10000 nM
4 | FC(F)(F)c1nc(-c2ccc(CN(c3cnccn3)c3nccc4ncccc34)s2)no1 [Example AJ, N-(Pyrazin-2-yl)-N-({5-[5-(trifluoromethyl)-1,2,4-oxadiazol-3-yl]thiophen-2-yl}methyl)-1,6-naphthyridin-5-amine] | > 10000 nM | ≤ 10000 nM | ≤ 10000 nM | ≤ 10000 nM | ≤ 10000 nM | ≤ 10000 nM
5 | FC(F)(F)c1nc(-c2ccc(CN(c3cnccn3)c3ccc(N4CCOCC4)nn3)s2)no1 [Example DJ, 6-(Morpholin-4-yl)-N-(pyrazin-2-yl)-N-({5-[5-(trifluoromethyl)-1,2,4-oxadiazol-3-yl]thiophen-2-yl}methyl)pyridazin-3-amine] | > 10000 nM | ≤ 10000 nM | ≤ 1000 nM | ≤ 500 nM | ≤ 10000 nM | ≤ 10000 nM

Next, values leading:

Row | IC50 [1] | IC50 [2] | IC50 [3] | IC50 [4] | IC50 [5] | IC50 [6] | Structure (SMILES)
6 | > 10000 nM | ≤ 10000 nM | ≤ 1000 nM | ≤ 10000 nM | ≤ 10000 nM | ≤ 10000 nM | FC(F)(F)c1cnnc(N(Cc2ccc(-c3noc(C(F)(F)F)n3)s2)c2cccnc2)c1 [Example EI, N-(Pyridin-3-yl)-5-(trifluoromethyl)-N-({5-[5-(trifluoromethyl)-1,2,4-oxadiazol-3-yl]thiophen-2-yl}methyl)pyridazin-3-amine]
7 | > 10000 nM | ≤ 10000 nM | ≤ 10000 nM | ≤ 1000 nM | ≤ 10000 nM | ≤ 10000 nM | FC(F)(F)c1cnnc(N(Cc2ccc(-c3noc(C(F)(F)F)n3)s2)c2cncnc2)c1 [Example EQ, N-(Pyrimidin-5-yl)-5-(trifluoromethyl)-N-({5-[5-(trifluoromethyl)-1,2,4-oxadiazol-3-yl]thiophen-2-yl}methyl)pyridazin-3-amine]
8 | > 10000 nM | ≤ 10000 nM | ≤ 10000 nM | ≤ 10000 nM | ≤ 10000 nM | > 10000 nM | COc1cnc(N(Cc2ccc(-c3noc(C(F)(F)F)n3)s2)c2cc(C(F)(F)F)cnn2)cn1 [Example EP, N-(5-Methoxypyrazin-2-yl)-5-(trifluoromethyl)-N-({5-[5-(trifluoromethyl)-1,2,4-oxadiazol-3-yl]thiophen-2-yl}methyl)pyridazin-3-amine]
9 | > 10000 nM | ≤ 1000 nM | ≤ 1000 nM | ≤ 1000 nM | ≤ 10000 nM | ≤ 10000 nM | COc1ccc(N(Cc2ccc(-c3noc(C(F)(F)F)n3)s2)c2cnccn2)nn1 [Example DG, 6-Methoxy-N-(pyrazin-2-yl)-N-({5-[5-(trifluoromethyl)-1,2,4-oxadiazol-3-yl]thiophen-2-yl}methyl)pyridazin-3-amine]
